# Measured values taken from ChEMBL document CHEMBL1121986, “Spiro oxazolidinedione aldose reductase inhibitors” (J Med Chem, 1982).
# Active and inactive are the calls of the source. The rule behind the calls is not given here.
# How the values were obtained:
# Rattus norvegicus [1] = assay: Dose required for reduction of sorbitol accumulation in the sciatic nerve in streptozotocin-diabetic rats in vivo; type: functional
# [2] = molecular target: T1, Aldo-keto reductase family 1 member B1 (Bos taurus, UniProt P16116); assay: Inhibitory concentration was determined against partially purified calf lens aldose reductase using glyceraldehyde as a substrate
# [3] = molecular target: T1, Aldo-keto reductase family 1 member B1; assay: Inhibitory concentration was determined against partially purified calf lens aldose reductase using glyceraldehyde as a substrate; 10e-6/10e-7
# Rattus norvegicus [4] = assay: Dose required for reduction of sorbitol accumulation in the sciatic nerve in streptozotocin-diabetic rats in vivo; Inactive; type: functional, organism-based
# [5] = molecular target: T1, Aldo-keto reductase family 1 member B1; assay: Inhibitory concentration was determined against partially purified calf lens aldose reductase using glyceraldehyde as a substrate; 10e-7/10e-8
# [6] = molecular target: T1, Aldo-keto reductase family 1 member B1; assay: Inhibitory concentration was determined against partially purified calf lens aldose reductase using glyceraldehyde as a substrate; 10e-4/10e-5
# [7] = Rattus norvegicus, Sciatic nerve, read-out: ED50
Structure (SMILES),ED50 (Rattus norvegicus [1]; [7]) [mg/kg],IC50 [2] [µM],other results
O=C1NC(=O)C2(CCOc3ccc(Br)cc32)O1 (stereo not given),> 1.5,1,–
"O=C1N=C(O)OC12CCOc1c(Cl)cc(Cl)cc12 (single isomer, unassigned; (+))",–,100,–
O=C1NC(=O)C2(CCOc3c(Cl)cc(Cl)cc32)O1 (stereo in doubt; 23),–,–,ED50 (Rattus norvegicus [1]): 1.5 mg/kg
O=C1NC(=O)C2(CCOc3ccc(Cl)cc32)O1 (stereo not given),> 1.5,–,IC50 [3]: 10 µM
O=C1NC(=O)C2(CCSc3ccc(F)cc32)O1 (stereo not given),25,10,–
O=C1NC(=O)C2(CCSc3ccccc32)O1 (stereo not given),25,10,–
O=C1NC(=O)C2(CCOc3ccccc32)O1 (stereo not given),–,100,–
O=C1NC(=O)C2(CCSc3ccc(Cl)cc32)O1 (stereo not given),> 1.5,–,IC50 [3]: 10 µM
O=C1NC(=O)C2(CCc3ccccc32)O1 (stereo not given),> 25,100,–
"O=C1N=C(O)OC12CCOc1ccc(Cl)cc12 (single isomer, unassigned; (-))",–,1,–
O=C1NC(=O)C2(CCCc3ccccc32)O1 (stereo not given),–,100,ED50 (Rattus norvegicus [4]): inactive
O=C1NC(=O)C2(CCOc3c(Cl)cc(Cl)cc32)O1 (stereo in doubt; 14),> 1.5,–,IC50 [5]: 1 µM
Cc1cc(Cl)cc2c1OCCC21OC(=O)NC1=O (stereo not given),> 1.5,–,IC50 [3]: 10 µM
"O=C1N=C(O)OC12CCOc1ccc(Cl)cc12 (single isomer, unassigned; (+))",–,–,IC50 [6]: 1000 µM
O=C1NC(=O)C2(CCOc3ccc(F)cc32)O1 (stereo not given),> 1.5,–,IC50 [3]: 10 µM
